Patent US20130046025A1, “COMPOSITION WITH LOW SKIN IRRITATION FOR TRANSDERMAL DELIVERY OF TOLTERODINE” (SK Chemicals Co., Ltd., priority 2010, published 2013)

Tested on: forearm skin of a test subject
Experiment: Skin irritation test of patches (primary skin irritation index)
Assay type: in vivo
Details: for Effect on relief of skin irritation caused by tolterodine, result in words: conclusion from Table 4, essential oil in tolterodine patch
Method: Each of the patches produced in Production Examples 1 and 2 was cut to a size of 1 cm×1 cm. The specimen was attached to the forearm skin of a test subject and fixed with a medical tape to prevent detachment during the test period. After 24 hr, the medical tape and the patch were removed with care. After 1 hr, the primary skin irritation index of the patch for skin irritations including erythema and edema was determined with the help of an expert.
Skin irritation tests were conducted in the same manner as in Test Example 1.

Row | Structure (SMILES) | Effect on relief of skin irritation caused by tolterodine, result in words | Skin irritation (erythema, edema), result in words (conclusion from Table 2)
1 | CC(C)=CCC[C@](C)(O)C1CC=C(C)CC1 (stereo partly drawn) [bisabolol] | outstanding effects on skin irritation relief | 
2 | C=CCc1ccc(O)c(OC)c1 [eugenol] | outstanding effects on skin irritation relief | 
3 | Cc1ccc(O)c([C@H](CCN(C(C)C)C(C)C)c2ccccc2)c1 [tolterodine, 2-[(1R)-3-(diisopropylamino)-1-phenylpropyl)-4-methylphenol] |  | causing skin irritations
